# Reference: paper PMC4303209, “A novel phosphatidylinositol 3-kinase (PI3K) inhibitor directs a potent FOXO-dependent, p53-independent cell cycle arrest phenotype characterized by the differential induction of a subset of FOXO-regulated genes” (Breast Cancer Research : BCR, 2014)
# Tested on: MCF-7 breast cancer cells
# Experiment: Microarray gene expression analysis (Agilent whole human genome 4 x 44K; compound vs DMSO, LIMMA log2 fold change)
# Format: cell-based
# Details: Apoptosis genes
compound,measurement,setting,value
Cn1ncc2c(N3CCOCC3)nc(-c3cccc(O)c3)nc21 [ETP-45658],PML log2FC,Gene 5371,-0.804
same,POLR2G log2FC,Gene 5436,0.335
same,POU3F3 log2FC,Gene 5455,-0.318
same,POU4F1 log2FC,Gene 5457,-0.504
same,POU4F3 log2FC,Gene 5459,-0.263
same,PPARD log2FC,Gene 5467,-0.520
same,PPARG log2FC,Gene 5468,-0.185
same,PPID log2FC,Gene 5481,0.248
same,PPP1CA log2FC,Gene 5499,-0.227
same,PPP2CA log2FC,Gene 5515,-0.322
same,PPP2CB log2FC,Gene 5516,-0.242
same,PPP2R1B log2FC,Gene 5519,-0.532
same,PPP2R2B log2FC,Gene 5521,0.082
same,PPP2R4 log2FC,Gene 5524,-0.446
same,PPP2R5C log2FC,Gene 5527,0.888
same,PPP3CC log2FC,Gene 5533,0.163
same,PPP3R1 log2FC,Gene 5534,-0.308
same,PPT1 log2FC,Gene 5538,0.432
same,PRF1 log2FC,Gene 5551,-0.050
same,PRKAA1 log2FC,Gene 5562,0.429
same,PRKAA2 log2FC,Gene 5563,0.082
same,PRKCA log2FC,Gene 5578,-0.217
same,PRKCD log2FC,Gene 5580,-0.079
same,PRKCE log2FC,Gene 5581,-0.042
same,PRKCG log2FC,Gene 5582,-0.093
same,PRKCH log2FC,Gene 5583,-0.256
same,PRKCI log2FC,Gene 5584,0.583
same,PKN2 log2FC,Gene 5586,0.510
same,PRKD1 log2FC,Gene 5587,0.494
same,PRKCQ log2FC,Gene 5588,0.132
same,PRKCZ log2FC,Gene 5590,0.430
same,PRKDC log2FC,Gene 5591,0.131
same,MAPK3 log2FC,Gene 5595,-0.190
same,MAPK7 log2FC,Gene 5598,-0.336
same,MAP2K6 log2FC,Gene 5608,0.116
same,PRODH log2FC,Gene 5625,-0.290
same,LGMN log2FC,Gene 5641,-0.066
same,PSEN1 log2FC,Gene 5663,0.418
same,PSEN2 log2FC,Gene 5664,-0.458
same,PSMA2 log2FC,Gene 5683,0.460
same,PSMA3 log2FC,Gene 5684,0.270
same,PSMA4 log2FC,Gene 5685,0.609
same,PSMA6 log2FC,Gene 5687,0.200
same,PSMB1 log2FC,Gene 5689,0.085
same,PSMB2 log2FC,Gene 5690,-0.547
same,PSMB4 log2FC,Gene 5692,0.132
same,PSMB5 log2FC,Gene 5693,-0.298
same,PSMB6 log2FC,Gene 5694,-0.120
same,PSMB9 log2FC,Gene 5698,-0.203
same,PSMB10 log2FC,Gene 5699,-0.184
same,PSMC1 log2FC,Gene 5700,0.172
same,PSMC2 log2FC,Gene 5701,0.576
same,PSMC3 log2FC,Gene 5702,-0.176
same,PSMC5 log2FC,Gene 5705,-0.327
same,PSMC6 log2FC,Gene 5706,0.776
same,PSMD1 log2FC,Gene 5707,0.397
same,PSMD3 log2FC,Gene 5709,-0.109
same,PSMD4 log2FC,Gene 5710,-0.086
same,PSMD5 log2FC,Gene 5711,0.388
same,PSMD7 log2FC,Gene 5713,0.182
same,PSMD8 log2FC,Gene 5714,-0.132
same,PSMD9 log2FC,Gene 5715,-0.171
same,PSMD10 log2FC,Gene 5716,-0.293
same,PSMD11 log2FC,Gene 5717,-0.214
same,PSMD12 log2FC,Gene 5718,-0.582
same,PSME1 log2FC,Gene 5720,0.322
same,PTEN log2FC,Gene 5728,1.014
same,PTGFR log2FC,Gene 5737,-0.039
same,PTGIS log2FC,Gene 5740,0.033
same,PTH log2FC,Gene 5741,-0.079
same,PTGS2 log2FC,Gene 5743,-0.151
same,PTK2 log2FC,Gene 5747,0.157
same,PTPN6 log2FC,Gene 5777,0.120
same,PTPRC log2FC,Gene 5788,-0.053
same,PTPRH log2FC,Gene 5794,0.279
same,RAC1 log2FC,Gene 5879,-0.258
same,RAD9A log2FC,Gene 5883,0.686
same,RAD21 log2FC,Gene 5885,1.043
same,RAG1 log2FC,Gene 5896,0.657
same,RALB log2FC,Gene 5899,0.324
same,RARA log2FC,Gene 5914,-0.580
same,RARG log2FC,Gene 5916,-0.272
same,RASA1 log2FC,Gene 5921,0.488
same,RASGRF2 log2FC,Gene 5924,-0.240
same,RB1 log2FC,Gene 5925,0.746
same,RELA log2FC,Gene 5970,-0.454
same,DPF2 log2FC,Gene 5977,0.303
same,REST log2FC,Gene 5978,0.367
same,ROBO1 log2FC,Gene 6091,0.128
same,ROBO2 log2FC,Gene 6092,-0.056
same,ROCK1 log2FC,Gene 6093,0.615
same,RPS3A log2FC,Gene 6189,0.669
same,RPS6 log2FC,Gene 6194,0.357
same,RPS6KA1 log2FC,Gene 6195,-0.234
same,RPS6KA3 log2FC,Gene 6197,0.412
same,RPS6KB1 log2FC,Gene 6198,0.426
same,RPS27A log2FC,Gene 6233,0.401
same,RTKN log2FC,Gene 6242,-0.208
same,SORT1 log2FC,Gene 6272,0.261
same,S100A8 log2FC,Gene 6279,0.469
same,S100B log2FC,Gene 6285,-0.122
same,SATB1 log2FC,Gene 6304,0.589
same,SCT log2FC,Gene 6343,-0.095
same,CCL2 log2FC,Gene 6347,-0.179
same,CCL3 log2FC,Gene 6348,-0.223
same,CCL5 log2FC,Gene 6352,0.088
same,CCL21 log2FC,Gene 6366,-0.170
same,CX3CL1 log2FC,Gene 6376,-0.563
same,CXCL12 log2FC,Gene 6387,-0.211
same,MAP2K4 log2FC,Gene 6416,0.120
same,SET log2FC,Gene 6418,0.225
same,SFRP1 log2FC,Gene 6422,0.214
same,SFRP2 log2FC,Gene 6423,-0.093
same,SFRP4 log2FC,Gene 6424,0.051
same,SFRP5 log2FC,Gene 6425,-0.042
same,ITSN1 log2FC,Gene 6453,0.278
same,SHB log2FC,Gene 6461,-0.876
same,SHH log2FC,Gene 6469,-0.209
same,SIAH1 log2FC,Gene 6477,0.248
same,SIAH2 log2FC,Gene 6478,-0.579
same,STIL log2FC,Gene 6491,0.485
same,SIX1 log2FC,Gene 6495,-0.507
same,SKI log2FC,Gene 6497,-0.663
same,SLC9A1 log2FC,Gene 6548,-0.600
same,SLIT3 log2FC,Gene 6586,-0.286
same,SNAI2 log2FC,Gene 6591,0.199
same,SMO log2FC,Gene 6608,-0.194
same,SMPD1 log2FC,Gene 6609,0.257
same,SMPD2 log2FC,Gene 6610,-0.399
same,SIGLEC1 log2FC,Gene 6614,-0.350
same,SNAI1 log2FC,Gene 6615,-0.710
same,SNCB log2FC,Gene 6620,-0.626
same,SNCA log2FC,Gene 6622,-0.041
same,SOD2 log2FC,Gene 6648,0.179
same,SON log2FC,Gene 6651,-0.111
same,SOX2 log2FC,Gene 6657,0.298
same,SOX4 log2FC,Gene 6659,0.216
same,SOX9 log2FC,Gene 6662,-2.381
same,SOX10 log2FC,Gene 6663,-0.095
same,SP100 log2FC,Gene 6672,0.968
same,SPI1 log2FC,Gene 6688,-0.242
same,SPN log2FC,Gene 6693,-0.216
same,SRC log2FC,Gene 6714,-0.316
same,SRPK2 log2FC,Gene 6733,0.850
same,SST log2FC,Gene 6750,0.289
same,SSTR3 log2FC,Gene 6753,-0.375
same,STAR log2FC,Gene 6770,-0.189
same,STAT1 log2FC,Gene 6772,0.445
same,STAT5A log2FC,Gene 6776,0.569
same,STAT5B log2FC,Gene 6777,0.093
same,STK4 log2FC,Gene 6789,0.158
same,STK11 log2FC,Gene 6794,-0.165
same,STXBP1 log2FC,Gene 6812,-0.504
same,SUPV3L1 log2FC,Gene 6832,0.440
same,ADAM17 log2FC,Gene 6868,0.578
same,TAF9 log2FC,Gene 6880,0.363
same,MAP3K7 log2FC,Gene 6885,0.181
